In patent publication US20130216600A1, “ANTIMICROBIAL NANOPARTICLE CONJUGATES” (priority 2010, published 2013):
Values joined by “and” are separate entries in the source; they are usually repeats but may differ in a detail not shown here. Identical values can stand only once.

Experiments:
[1] = tested on: Klebsiella pneumoniae ATCC 10031; assay: MIC of DexOx-antibiotic conjugates and free drugs; type: cell-based; conditions: K. pneumoniae
Procedure: (§1) To evaluate the antibacterial activity of DexOx-Amp, DexOx-Van and DexOx-Gen, the minimal inhibitory concentration (MIC) was determined for each of the conjugates and compared with each of MIC values obtained for Amp, Van and Gen. The tests were performed against 5×10^5 cells/mL (in 0.2 mL of medium) of Staphylococcus aureus ATCC 6538 (S. aureus), Pseudomonas aeruginosa ATCC 15442 (P. aeruginosa), Klebsiella pneumoniae ATCC 10031 (K. pneumoniae) or Escherichia coli ATCC 25922 (E. coli), with concentrations of the drug between 0 and 120 μg/mL. The microorganisms were incubated at 37° C. for 18 h, and the absorbance at 600 nm was monitored every 30 min.

[2] = tested on: Pseudomonas aeruginosa ATCC 15442; assay: MIC of DexOx-antibiotic conjugates and free drugs; type: cell-based; conditions: P. aeruginosa
Procedure: as §1

[3] = tested on: Candida albicans; assay: MIC of AmB and DexOx-AmB conjugates (NCCLS M27A2E); type: cell-based; conditions: 48 hours
Text: The “minimal inhibitory concentration” or “MIC” is defined as the lowest drug concentration that results in complete inhibition of visible growth of a microorganism.

[4] = The Merck Index 1989; cited from earlier work
[5] = tested on: C. krusei; assay: Spectrum of antifungal activity, MIC after 8 hours; type: cell-based; conditions: formulation
Procedure: (§2) In order to determine the spectrum of antifungal activity of the nanoparticles functionalized with amphotericin B, they were tested against four strains of Candida, namely: C parapsilosis, C krusei, C glabrata, and C tropicalis. The MIC values were determined after 8 hours of incubation with AmB, DexOx-AmB conjugate, unconjugated silica nanoparticles, and silica nanoparticles functionalized with DexOx-AmB.

[6] = tested on: C. glabrata; assay: Spectrum of antifungal activity, MIC after 8 hours; type: cell-based; conditions: formulation
Procedure: as §2

[7] = tested on: C. parapsilosis; assay: Spectrum of antifungal activity, MIC after 8 hours; type: cell-based; conditions: formulation
Procedure: as §2

[8] = tested on: C. tropicalis; assay: Spectrum of antifungal activity, MIC after 8 hours; type: cell-based; conditions: formulation
Procedure: as §2

[9] = tested on: C. albicans; assay: Spectrum of antifungal activity, MIC after 8 hours; type: cell-based; conditions: formulation

gentamicin
MIC free drug (μg/mL) [1]: MIC < 2 μg/mL
MIC free drug (μg/mL) [2]: MIC < 2 μg/mL

CC1(C)S[C@@H]2[C@H](NC(=O)[C@H](N)c3ccccc3)C(=O)N2[C@H]1C(=O)O [Amp, ampicillin]
MIC ([1]; Klebsiella pneumoniae, ATCC10031, free drug): 20 to 40 µg/mL
MIC ([2]; Pseudomonas aeruginosa, ATCC15442, free drug): > 120 µg/mL

amphotericin B [AmB]
MIC (μg of conjugate/ml) ([3]; 30° C., n=6): 0.9 ± 0.2 μg of conjugate/ml
MIC ([3]; unconjugated (soluble) AmB): 0.9 µg/mL and 0.9 ± 0.2 µg/mL
water solubility limit [4]: 100 µg/mL
Minimum Inhibitory Concentration (MIC) [5]: 0.1
Minimum Inhibitory Concentration (MIC) [6]: 0.03
Minimum Inhibitory Concentration (MIC) [7]: 0.3
Minimum Inhibitory Concentration (MIC) [8]: 0.08
Minimum Inhibitory Concentration (MIC) [9]: 0.3
